Drawing on a melting point compilation (Tetko et al.; mined from patent text by program, amines drawn as free bases though some values may be those of a salt), this text covers melting point for 88 compounds.

One may read the melting point as the temperature, or range, at which the solid turns liquid. In the case of `O=C(O)c1cc(F)cc(-c2cccc3cc(Cc4ccc(F)c(Cl)c4)sc23)c1`, the melting point lay in the range of 135 to 137 °C.

On to `O=[N+]([O-])c1c(O)ccnc1O`, for which the melting point is more than 230 °C. The value for `CCOc1ccc2c(c1)n(C1CCCCC1)c(=O)n2S(=O)(=O)c1ccc(C(=O)NC2Cc3ccccc3C2)cc1OC` was 160 °C; that for `CCOC(=O)Cc1ccc(N[C@@H](CCC(N)=O)C(=O)O)cc1` was 180 °C. The value for `CC1(C)CCc2c(ccc3c2C(=O)C(Cl)=C(Cl)C3=O)O1` was 158 to 160 °C. The value for `CCC(=O)OC1=C(CCCCCCCCC[Si](C)(C)C)C(=O)c2ccccc2C1=O` was 41 to 43 °C; that for `CCCCNC(=O)NC1CCNCC1` was 132 to 134 °C; that for `Cc1c(F)c(F)c(C(=O)NC2CCCCC2C)c(F)c1F` (stereo not drawn) was 202 to 204 °C.

Take `O=S(=O)(Nc1ccc(Cl)cc1Sc1ccc(Cl)cc1)C(F)(F)F`: the melting point was 83 to 84 °C. The value for `COc1ccc(N2CCOCC2)cc1NC(=S)c1nc2ccc(C)nc2[nH]1` was 189 to 191 °C; that for `CCCn1cc(C(=O)NCc2ccc(Cl)cc2)c(=O)c2cc(CN3CCOCC3)sc21` was 174 to 176 °C. The value for `NCCNc1cc(-n2cccn2)nc(-c2ccco2)n1` was 104 to 105 °C; that for `O=C(O)C(=O)Nc1cccc([N+](=O)[O-])c1` was more than 270 °C. The value for `CCN(CC)P(N)(N)=S` was 54 to 58 °C; that for `CC(=O)CCc1cc(OC(C)=O)c(C(C)(C)C)cc1OC(C)=O` was 66.5 to 68 °C; that for `COCCCNc1c([N+](=O)[O-])cnc2ccccc12` was 93 to 95 °C.

The compound `Oc1noc2ccc(F)cc12` yielded a melting point of 201 to 203 °C. The value for `COC(=O)NNC(=O)C=Cc1ccccc1` was 165 °C; that for `O=C(/C=C/C=C(c1cccc(Cl)c1)c1cccc(Cl)c1)NCCCCc1cccnc1` was 100 to 102 °C. The value for `CCOC(=O)Cc1ccc(NC(=O)C(COc2cccc(Cl)c2)NS(=O)(=O)c2ccc(Cl)cc2)cc1` (racemic) was 173 to 174 °C; that for `Cc1cc(C(=O)Nc2cccc(Oc3ccc4nc(NC(=O)CN(C)C)cn4n3)c2)n(C)n1` was 210 °C; that for `CCOC(=O)C1=Cc2cc(Cl)c(O)cc2OC1C(F)(F)F` (stereo not drawn) was 118 to 125 °C. The value for `CCOC(=O)c1cn(C(=O)OCC(C)C)c2c(COC(C)=O)cc(C)cc2c1=O` was 101 to 103 °C; that for `Cc1cccc2c1C=C(C(=O)O)C2C` (stereo not drawn) was 190 to 193 °C. `Oc1ccc2c(c1O)OCC(c1cccc(C(F)(F)F)c1)C2` (stereo not drawn) registered a melting point of 99 to 100 °C. The value for `CCCOc1ccc(C)cc1-c1nc2c(CCC)nn(C)c2c(=O)[nH]1` was 115 to 116 °C; that for `COc1ccc2cccc(C(CNC(=O)CF)COS(C)(=O)=O)c2c1` (stereo not drawn) was 122 to 124 °C; that for `CCN(CC)c1ccc2c(c1)OC(C(F)(F)F)C(C(=O)O)=C2` (stereo not drawn) was 214 to 215 °C. The value for `CC1(C)C2CCC3(C2)C1c1ncncc1CC3(C)C` (stereo not drawn) was 44 to 45 °C; that for `CC(C)n1nc(-c2c(-c3ccccc3)nn3ccc(OCCCN(C)C)cc23)ccc1=O` was 125 to 126 °C.

`CCN(CC)C(=O)CCCOc1ccc(Oc2ccccc2)cc1` returned a melting point of 73 to 74 °C. The value for `Cc1c(Br)ccc(N)c1S(C)(=O)=O` was 103 to 106 °C; that for `CC(C)Nc1cccnc1N1CCN(C(=O)c2ccc(C(=O)N(C)CC3OCCO3)cc2)CC1` was 102 to 104 °C; that for `O=C(N[C@@H]1CN2CCC1CC2)c1cccc2c1cc1n2CCCC1` was 163 to 164 °C.

With `CN(C)n1cc(-c2ccccc2)c(=O)c(-c2ccccc2)c1`, the melting point worked out at 143 °C. The value for `CC(C)N(C)C(=O)N1N=C2c3cc(F)ccc3OC[C@@H]2[C@@H]1c1ccccc1` (racemic) was 102 to 105 °C; that for `OCc1ccnc(Nc2ncc(-c3ccccc3)s2)c1` was 236 to 237 °C. Consider `COc1ccc(CN(C)CCc2ccc(NC(=O)c3cccc4c(=O)c5c(OC)ccc(OC)c5[nH]c34)cc2)cc1OC`, for which the melting point was 196 °C.

Turning to `CCCCc1nn(-c2cc(NC(=O)CC)ccc2Cl)c(=O)n1Cc1ccc(-c2ccccc2S(=O)(=O)NC(=O)OC(C)(C)C)cc1F`, the melting point was 137 to 140 °C. For the compound `COc1cccc(C(=O)Nc2ccc(-n3nc(C(F)(F)F)cc3C(F)(F)F)cc2)c1`, the melting point lay within 169 to 172 °C.

With `Cc1nc(C(=O)NC23CC4CC(CC(C4)C2)C3)cn1-c1ccccc1`, the melting point is 207 to 210 °C. The compound `CCCOC(=O)N1CCN(C(=O)c2cc(S(=O)(=O)N(C)C)ccc2N)CC1` gave a melting point of 174 to 176 °C. The value for `O=C(Nc1ccc(OCc2ccncc2)c2ccccc12)c1cc(F)cc(OC2CCCCC2)c1` was 176 to 178 °C; that for `CC(C)c1ccc(NC(=O)Cn2cnc3[nH]c(=O)[nH]c(=O)c32)cc1` was 320 to 325 °C; that for `COCC1CCCN1Cc1ccc(-c2cc3ncnc(Nc4ccc5[nH]ccc5c4)c3s2)cc1` (stereo not drawn) was 161 to 177 °C. The value for `S=c1cc(-c2nc[nH]n2)oc2ccccc12` was 232 °C. The value for `CCOC(=O)C1CN(S(=O)(=O)c2ccc3cc(Br)ccc3c2)CCN1C(=O)C1CCN(c2ccncc2)CC1` (stereo not drawn) was 117 to 121 °C; that for `O=C(Nc1ccc(C(F)(F)F)cc1)N1N=C2c3ccc(C(F)(F)F)cc3OC3CCCC1C23` (stereo not drawn) was 194 to 195 °C. Take `Cc1nnc(-c2cc3c(OCCCN4CCC(c5ccc6c(c5)OCO6)CC4)cccc3o2)o1`: the melting point is 125 to 127 °C. The value for `COc1cc(OCc2ccccn2)ccc1/C=C/c1cc(/C=C/c2ccc3nccnc3c2)[nH]n1` was 205 to 213 °C. The value for `CCc1c(Cc2c[nH]c3ccccc23)[nH]c(=O)c(CC(C)C)[n+]1[O-]` was 212 to 214 °C; that for `COc1cccc2c(=O)cc(-c3ccc(O)cc3)oc12` was 281 to 283 °C. The value for `CN1CCCN=C1C(Br)(Br)[N+](=O)[O-]` was 106 to 107 °C.

For the compound `O=C1CC(c2cccs2)=Nc2ccc(I)cc2N1`, the melting point was more than 260 °C. The value for `O=C(O)C1Cc2c(c(Cl)cc3c(=O)c4ccccc4oc23)O1` (stereo not drawn) was 292 to 295 °C; that for `CCOC(=O)c1ccc(NCc2nccnc2OCc2ccccc2)cc1` was 112 °C; that for `CCOC(=O)CCCOc1ccc(C(C)=O)cc1OC` was 53 to 55 °C. The value for `[N-]=[N+]=Nc1cc(OCCO)ncn1` was 49 to 50 °C; that for `CC(C)(C)OC(=O)NC1CCN(CC23CC(c4ccccc42)c2ccccc23)CC1` was 155 to 160 °C. The value for `C=CCc1cn(C(c2ccccc2)(c2ccccc2)c2ccccc2)c(F)n1` was 136 to 138 °C; that for `O=C(O)COc1cc2c(c(Cl)c1Cl)C(=O)C(C1CCCC1)C2` (stereo not drawn) was 184 to 186 °C. Compound `O=C1NC(=O)C(Nc2cccc3ccccc23)S1` (stereo not drawn) displayed a melting point of 195 to 197 °C. The value for `C=CCn1ccnc1C(O)(c1ccccc1)c1ccc(Cl)cc1` (stereo not drawn) was 165 to 166 °C. On to `COC(=O)c1ccccc1NC(=O)CN1CCNCC1`, for which the melting point was in the range of 94 to 96 °C. The value for `Cc1cc(C)c2nc(N(CC(C)N3CCOCC3)C3CCNCC3)n(Cc3nc(C)ccc3O)c2c1` (stereo not drawn) was 223 °C; that for `CCn1c2ccccc2c2c(N)c(C(=O)OC)c(C)nc21` was 108 to 110 °C. The value for `OC(Cc1ccccc1Cl)(Cn1ccnc1S)C1(Cl)CC1` (stereo not drawn) was 124 to 126 °C; that for `CC(O)c1ccc(CNC(=O)c2cccnc2Oc2cccnc2)s1` (stereo not drawn) was 92 to 94 °C; that for `COc1ccc(CCCC(=O)Nc2c(C)c(C)c3c(c2C)C(c2ccc(C)cc2)C(C)(C)O3)cc1` (stereo not drawn) was 166 to 167 °C.

In turn, `Cc1cccc(C(=O)Cc2ccnc(-c3ccc(OC(F)(F)F)cc3)c2)n1` displayed a melting point of 76 to 78 °C. The value for `CCOC(=O)c1c(N2CCN(C(=O)c3ccco3)CC2)c2sccc2n(CC(=O)c2ccccc2)c1=O` was 246 °C; that for `COC(=O)c1cc(C(=O)NNC(=O)c2ccccn2)c2cc(Cc3ccc(F)cc3)cnc2c1O` was 164 to 166 °C.

`CCN1CCN(C(=O)c2cc(N)cc(C(F)(F)F)c2)CC1` gave a melting point of 104 °C. `Cn1cnc(COc2nc3c(cc2-c2ccsc2)nnn3-c2ccccc2F)n1` showed a melting point of 174 to 176 °C. The value for `COc1ccnc(C(=O)N[C@H]2COC(=O)[C@H](Cc3ccccc3)[C@@H](OCSC)[C@H](C)OC2=O)c1O` was 159 to 160 °C. Turning to `COC(=O)c1nn(C2CCCCO2)cc1NC(=O)c1cc(Cl)ccn1` (stereo not drawn), the melting point fell in the range of 201 to 203 °C. The value for `CCOc1ccc(C(=O)NCc2ccc3c(c2)CN(C2CCC(=O)NC2=O)C3=O)cc1` (stereo not drawn) was 269 to 271 °C; that for `Cc1nnc2nc(-c3ccccc3F)cnn12` was 227 to 229 °C; that for `C=C(C)COc1cc(OC)cc(C(=O)OC)c1` was 159 to 161 °C. The value for `COc1ccc(NN=C(Sc2cc(Cl)cc(Cl)c2)C(C)=O)cc1` was 168 to 170 °C. The value for `CC(=O)Nc1ccc2cnn(-c3ccnc(N[C@H]4CC[C@H](O)CC4)n3)c2c1` was 288 to 290 °C; that for `CCCc1nn(-c2ccc(C(F)(F)F)cn2)cc1CCCOc1ccc(CC(=O)O)cc1` was 101 to 102 °C; that for `CCn1c(=O)n(CCCCC(C)(C)O)c(=O)c2[nH]cnc21` was 112 to 114 °C. As for `COc1ccc(-n2nc(N3CCN(C#N)CC3)c3ccccc32)cc1`, the melting point was 118 to 120 °C. The value for `Cc1nc(-c2ccccc2)[nH]c1-c1cnc(-c2ccccc2)nc1` was 138 °C; that for `CCOc1cc2c(cc1OC)C(=O)CC(C)(C)O2` was 120 to 122 °C; that for `O=C1c2cccnc2C(=O)N1Cc1ccccc1` was 163 to 165 °C. The compound `CC(C)c1ccc2c(c1)c(SCC1CC1)c(CC(C)(C)C(N)=O)n2Cc1ccc(Cl)cc1` gave a melting point of 137 to 138 °C.
